Results published in US20220401464A1, “TREATMENT OF CYR61- AND VEGF-MEDIATED CONDITIONS” (VANDA PHARMACEUTICALS INC., priority 2013, published 2022).
Counter-ions that a name gives are not always drawn.

Tested on: CYR61 gene expression
Test: CYR61 gene expression in ARPE-19/HPV16 cells treated for 24 hours, Affymetrix probe sets
Assay type: cell-based, human
Design: amplitude: scale not given here
Details: 10 uM; for Fold (CYR61 Downregulation): versus vehicle
Protocol: In a study leading to embodiments of the invention, a human retinal pigment epithelial cell line (ARPE-19/HPV16) was separately treated with an anthracycline (doxorubicin or daunorubicin), a statin (simvastatin or lovastatin), or vehicle for 24 hours and gene expression for […] probe sets covering 12,490 genes was generated using an Affymetrix instrument. The effects of these compounds on the expression of CYR61 are shown below in Table 1.

Structure (SMILES) | Rank (probe 201289_at) | amplitude (probe 201289_at) | Fold (CYR61 Downregulation) (probe 201289_at) | Rank (probe 210764_s_at) | amplitude (probe 210764_s_at) | Fold (CYR61 Downregulation) (probe 210764_s_at)
COc1cccc2c1C(=O)c1c(O)c3c(c(O)c1C2=O)C[C@@](O)(C(C)=O)C[C@@H]3O[C@H]1C[C@H](N)[C@H](O)[C@H](C)O1 [Daunorubicin HCl] | 22278 | −1.921 | −49.81 | 22239 | −1.8272 | −22.15
COc1cccc2c1C(=O)c1c(O)c3c(c(O)c1C2=O)C[C@@](O)(C(=O)CO)C[C@@H]3O[C@H]1C[C@H](N)[C@H](O)[C@H](C)O1 [Doxorubicin HCl] | 22282 | −1.967 | −118.5 | 22272 | −1.925 | −52.26
CC(=O)[C@]1(O)Cc2c(O)c3c(c(O)c2[C@@H](O[C@H]2C[C@H](N)[C@H](O)[C@H](C)O2)C1)C(=O)c1ccccc1C3=O [Idarubicin HCl] | 22273 | −1.899 | −38.72 | 22267 | −1.875 | −31.13
CC[C@H](C)C(=O)O[C@H]1C[C@@H](C)C=C2C=C[C@H](C)[C@H](CC[C@@H]3C[C@@H](O)CC(=O)O3)[C@H]21 [Lovastatin] | 22271 | −1.412 | −5.799 | 22264 | −1.297 | −4.687
CCC(C)(C)C(=O)O[C@H]1C[C@@H](C)C=C2C=C[C@H](C)[C@H](CC[C@@H]3C[C@@H](O)CC(=O)O3)[C@H]21 [Simvastatin] | 22255 | −1.378 | −5.428 | 22262 | −1.3931 | −5.591
